From patent publication US20110097274A1, “Carbon-11 and fluorine-18 labeled radioligands for positron emission tomography (PET) imaging for the brain serotonin transporters” (priority 2002, published 2011)
Several values for one entry are separate records, joined by “and”; a condition that tells them apart may be missing. Identical values can stand only once. Like-named read-outs stand apart in the source and are kept apart here.

What was measured:
SERT = assay: Baboon PET imaging: brain uptake, kinetic analysis and SERT parameters; assay type: in vivo; conditions: for Kp: male, baboon, brain, intravenous
Procedure, shortened: (§1)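 Two isoflurane-anaesthetised adult male baboons, each radioligand tested twice (test-retest); i.v. bolus, 91 min 3D emission scan with arterial sampling, MRI-defined regions. Brain uptake as % ID g^−1, with peak time and washout; VT from one-tissue compartment model (K1/k2) using arterial plasma input.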

[1] = as above; assay type: in vivo; conditions: male, baboon, intravenous, baboons
Procedure, shortened: as §1

[2] = Plasma free fraction (f1) and filter retention by ultrafiltration; assay type: in vitro ADME, baboon; conditions: mean ± SD of four experiments
Description: Plasma and ultrafiltrate activities were counted, and f1 was calculated as the ratio of ultrafiltrate activity to total plasma activity. Triplicate aliquots of the radioligand in pH 7.4 Tris buffer were also processed to determine the filter retention of free tracer.

[3] = BP = VT ROI − VT CER, baboons, mean ± SD of four experiments
[4] = Mean ± SD of four experiments in two baboons
[5] = baboons, mean ± SD of four experiments
[6] = last scan 90 minutes, baboons, mean ± SD of four experiments
[7] = one-tissue compartment model, baboons, mean ± SD of four experiments

## CN(C)Cc1ccccc1Sc1ccc(C#N)cc1N [[^11C]DASB]
SERT; [3]
  Binding potential Cingulate Cortex: 3.8 ± 0.8 mL/g
  Binding potential Hippocampus: 10.0 ± 1.3 mL/g
  Binding potential Midbrain: 29.1 ± 4.0 mL/g
  Binding potential Occipital Cortex: 2.0 ± 1.1 mL/g
  Binding potential Striatum: 14.4 ± 1.5 mL/g
  Binding potential Temporal Cortex: 5.1 ± 1.9 mL/g
  Binding potential Thalamus: 30.2 ± 4.9 mL/g
SERT; Baboon A, single experiment
  Equilibrium specific to non-specific partition coefficient (V3″) Cingulate Cortex: 0.26 and 0.25
  Equilibrium specific to non-specific partition coefficient (V3″) Hippocampus: 0.48 and 0.65
  Equilibrium specific to non-specific partition coefficient (V3″) Midbrain: 1.46 and 1.66
  Equilibrium specific to non-specific partition coefficient (V3″) Occipital Cortex: 0.15 and 0.18
  Equilibrium specific to non-specific partition coefficient (V3″) Striatum: 0.72 and 0.89
  Equilibrium specific to non-specific partition coefficient (V3″) Temporal Cortex: 0.34 and 0.42
  Equilibrium specific to non-specific partition coefficient (V3″) Thalamus: 1.42 and 1.68
SERT; Baboon B, single experiment
  Equilibrium specific to non-specific partition coefficient (V3″) Cingulate Cortex: 0.21 and 0.16
  Equilibrium specific to non-specific partition coefficient (V3″) Hippocampus: 0.62 and 0.54
  Equilibrium specific to non-specific partition coefficient (V3″) Midbrain: 1.64 and 1.96
  Equilibrium specific to non-specific partition coefficient (V3″) Striatum: 0.83 and 0.87
  Equilibrium specific to non-specific partition coefficient (V3″) Temporal Cortex: 0.21
  Equilibrium specific to non-specific partition coefficient (V3″) Thalamus: 1.79 and 2.07
SERT; [4]
  Equilibrium specific to non-specific partition coefficient (V3″) Cingulate Cortex: 0.22 ± 0.04
  Equilibrium specific to non-specific partition coefficient (V3″) Hippocampus: 0.58 ± 0.08
  Equilibrium specific to non-specific partition coefficient (V3″) Midbrain: 1.68 ± 0.21
  Equilibrium specific to non-specific partition coefficient (V3″) Occipital Cortex: 0.11±0.06
  Equilibrium specific to non-specific partition coefficient (V3″) Striatum: 0.83 ± 0.08
  Equilibrium specific to non-specific partition coefficient (V3″) Temporal Cortex: 0.29 ± 0.10
  Equilibrium specific to non-specific partition coefficient (V3″) Thalamus: 1.74 ± 0.27
SERT; baboons
  K1, average of all regions and all animals: 1.21 ± 0.22 mL/g/min
  k2, average of all regions and all animals: 0.047 ± 0.018 min⁻¹
SERT; baboons, combining all regions
  V3″ expressed in percentage of [^11C]McN 5652 V3″: 142±29%
SERT; baboons, mean of all regions
  Mean regional peak uptake time: 19 ± 9 min
  Mean regional wash-out (% decrease between peak time and last scan): 52±19%
SERT; [5]
  Regional uptake peak time Cerebellum: 12 ± 5 min
  Regional uptake peak time Cingulate Cortex: 14 ± 3 min
  Regional uptake peak time Hippocampus: 22 ± 10 min
  Regional uptake peak time Midbrain: 27 ± 13 min
  Regional uptake peak time Occipital Cortex: 16 ± 4 min
  Regional uptake peak time Striatum: 22 ± 10 min
  Regional uptake peak time Temporal Cortex: 19 ± 5 min
  Regional uptake peak time Thalamus: 24 ± 10 min
SERT; baboons, region encompassing the entire brain
  Total brain uptake at 45 min: 0.013±0.002 % ID g^−1
SERT; [6]
  Regional activity wash-out: % decrease from peak to last scan, Cerebellum: 68 ± 14%
  Regional activity wash-out: % decrease from peak to last scan, Cingulate Cortex: 64 ± 10%
  Regional activity wash-out: % decrease from peak to last scan, Hippocampus: 46 ± 19%
  Regional activity wash-out: % decrease from peak to last scan, Midbrain: 32 ± 19%
  Regional activity wash-out: % decrease from peak to last scan, Occipital Cortex: 65 ± 11%
  Regional activity wash-out: % decrease from peak to last scan, Striatum: 49 ± 18%
  Regional activity wash-out: % decrease from peak to last scan, Temporal Cortex: 58 ± 13%
  Regional activity wash-out: % decrease from peak to last scan, Thalamus: 36 ± 16%
SERT; cingulate cortex, one-tissue compartment model, baboons, mean ± SD of four experiments, read-out: VT Cingulate Cortex
  Kp: 21.1 ± 0.9
SERT; hippocampus, one-tissue compartment model, baboons, mean ± SD of four experiments, read-out: VT Hippocampus
  Kp: 27.3 ± 1.4
SERT; midbrain, one-tissue compartment model, baboons, mean ± SD of four experiments, read-out: VT Midbrain
  Kp: 46.4 ± 4.3
SERT; occipital cortex, one-tissue compartment model, baboons, mean ± SD of four experiments, read-out: VT Occipital Cortex
  Kp: 19.3 ± 1.5
SERT; striatum, one-tissue compartment model, baboons, mean ± SD of four experiments, read-out: VT Striatum
  Kp: 31.7 ± 1.7
SERT; temporal cortex, one-tissue compartment model, baboons, mean ± SD of four experiments, read-out: VT Temporal Cortex
  Kp: 22.5 ± 2.1
SERT; thalamus, one-tissue compartment model, baboons, mean ± SD of four experiments, read-out: VT Thalamus
  Kp: 47.5 ± 5
SERT; [7]
  K1 Cerebellum: 1.36 ± 0.24 mL/g/min
  K1 Cingulate Cortex: 1.26 ± 0.09 mL/g/min
  K1 Hippocampus: 0.98 ± 0.20 mL/g/min
  K1 Midbrain: 1.23 ± 0.20 mL/g/min
  K1 Occipital Cortex: 1.15 ± 0.24 mL/g/min
  K1 Striatum: 1.27 ± 0.21 mL/g/min
  K1 Temporal Cortex: 1.05 ± 0.09 mL/g/min
  K1 Thalamus: 1.35 ± 0.29 mL/g/min
  K2 Cerebellum: 0.078 ± 0.013 min⁻¹
  K2 Cingulate Cortex: 0.060 ± 0.004 min⁻¹
  K2 Hippocampus: 0.036 ± 0.006 min⁻¹
  K2 Midbrain: 0.027 ± 0.005 min⁻¹
  K2 Occipital Cortex: 0.059 ± 0.011 min⁻¹
  K2 Striatum: 0.040 ± 0.007 min⁻¹
  K2 Temporal Cortex: 0.047 ± 0.004 min⁻¹
  K2 Thalamus: 0.028 ± 0.006 min⁻¹
  VT Cerebellum (VT CER, nonspecific distribution volume): 17.3 ± 0.5 mL/g
[1]; brain nonspecific distribution volume (cerebellum), calculated from f1 and cerebellar VT, read-out: f2 (free fraction in the nonspecific distribution volume)
  fraction unbound: 0.0077 ± 0.0008
[1]; brain regions (average of all regions), read-out: VT, average of all regions and all animals
  Kp: 29.2 ± 11.5
[1]; cerebellum, one-tissue compartment model, mean ± SD of four experiments, read-out: VT Cerebellum (VT CER, nonspecific distribution volume)
  Kp: 17.3 ± 0.5
[2]; activity remaining on filter, radioligand dissolved in saline
  Filter retention: 19.2 ± 4.7%
[2]; male, baboon plasma, ultrafiltration
  fraction unbound at 20 minutes: 0.135 ± 0.017
